{"source": "EPA's ToxRefDB 2", "key": {"rat [1]": {"system": "rat", "settings": "Subchronic oral toxicity in rodents, sprague dawley, Gavage/Intubation, dose end: 92 day, group: systemic"}, "dog [2]": {"system": "dog", "settings": "Sub-acute repeat dose toxicity; beagle; Oral; Gavage/Intubation; dose end: 16 day; group: systemic; systemic / in life observation / clinical signs / abnormal feces + systemic / in life observation / clinical signs / emesis + systemic / in …"}, "rabbit": {"system": "rabbit", "settings": "Sub-acute repeat dose toxicity, new zealand white, Oral, Gavage/Intubation, dose end: 5 day, group: systemic"}, "rat [3]": {"system": "rat", "settings": "Sub-acute repeat dose toxicity, Oral, Gavage/Intubation, dose end: 12 day, group: systemic"}, "dog [4]": {"system": "dog", "settings": "Sub-acute repeat dose toxicity; beagle; Oral; Gavage/Intubation; dose end: 23 day; group: systemic; systemic / in life observation / clinical signs / abnormal feces + systemic / in life observation / clinical signs / watery stools"}, "rat [5]": {"system": "rat", "settings": "Sub-acute repeat dose toxicity, sprague dawley, Oral, Gavage/Intubation, dose end: 15 day, group: systemic"}, "dog [6]": {"system": "dog", "settings": "Subchronic oral toxicity in nonrodent, beagle, Gavage/Intubation, dose end: 92 day, group: systemic"}, "dog [7]": {"system": "dog", "settings": "Sub-acute repeat dose toxicity; beagle; Oral; Gavage/Intubation; dose end: 21 day; group: systemic; systemic / in life observation / clinical signs / abnormal feces + systemic / in life observation / clinical signs / watery stools"}, "dog [8]": {"system": "dog", "settings": "Chronic toxicity, beagle, Oral, Feed, dose end: 52 week, group: systemic"}, "dog [9]": {"system": "dog", "settings": "Subchronic oral toxicity in nonrodent, beagle, Feed, dose end: 90 day, group: systemic, systemic / in life observation / body weight / body weight gain + systemic / in life observation / clinical signs / emaciation + systemic / …"}, "rat [10]": {"system": "rat", "settings": "Combined chronic toxicity/carcinogenicity, sprague dawley, Oral, Feed, dose end: 104 week, group: systemic"}, "mouse [11]": {"system": "mouse", "settings": "Combined chronic toxicity/carcinogenicity, cd1, Oral, Feed, dose end: 80 week, group: systemic"}, "mouse [12]": {"system": "mouse", "settings": "Subchronic oral toxicity in rodents, cd1, Feed, dose end: 91 day, group: systemic"}, "rat [13]": {"system": "rat", "settings": "Subchronic oral toxicity in rodents, other, Feed, dose end: 90 day, group: systemic"}, "rat [14]": {"system": "rat", "settings": "Multigenerational reproductive toxicity study, sprague dawley, Oral, Feed, dose end: 2 generation"}, "[15]": {"settings": "systemic / in life observation / body weight / body weight gain + systemic / in life observation / food consumption / food consumption"}, "[16]": {"settings": "systemic / in life observation / body weight / body weight gain + systemic / in life observation / food consumption / food consumption + …"}, "[17]": {"settings": "systemic / in life observation / body weight / body weight + systemic / in life observation / clinical signs / abnormal feces + systemic / …"}, "[18]": {"settings": "systemic / in life observation / body weight / body weight + systemic / in life observation / clinical signs / red or crusty deposits around…"}, "[19]": {"settings": "systemic / in life observation / clinical signs / salivation + systemic / organ weight / liver / absolute"}, "[20]": {"settings": "systemic / in life observation / mortality / mortality + systemic / pathology gross / stomach / discolored + systemic / pathology gross / …"}, "[21]": {"settings": "systemic / clinical chemistry / [other] / [other] + systemic / clinical chemistry / cytochrome p450, nos / cytochrome p450, nos + systemic…"}, "[22]": {"settings": "systemic / in life observation / body weight / body weight + systemic / in life observation / body weight / body weight gain + systemic / in…"}, "[23]": {"settings": "systemic / clinical chemistry / globulins / globulins + systemic / pathology gross / full gross necropsy / lymp lymphoma malignant …"}, "[24]": {"settings": "systemic / pathology microscopic / liver / hypertrophy"}, "[25]": {"settings": "systemic / pathology gross / ear / misshapen"}, "[26]": {"settings": "systemic / pathology microscopic / liver / hypertrophy + systemic / clinical chemistry / albumin / albumin + systemic / clinical chemistry…"}, "[27]": {"settings": "systemic / organ weight / liver / absolute + systemic / organ weight / liver / relative to body weight + systemic / clinical chemistry / …"}, "[28]": {"settings": "systemic / organ weight / liver / absolute + systemic / organ weight / liver / relative to body weight + systemic / in life observation / …"}, "[29]": {"settings": "group: offspring, systemic / in life observation / body weight / offspring (pup) weight"}, "[30]": {"settings": "group: parental, systemic / in life observation / body weight / body weight gain + systemic / in life observation / body weight / body weight"}, "[31]": {"settings": "group: reproductive, reproductive / reproductive performance / gestational length / gestational length"}}, "data": [{"smiles": "CCC(CC)Nc1cc(C)nc(Oc2c(C)cc(C)cc2C)c1C", "values": [{"measurement": "LEL", "setting": "rat [1]; [15]", "result": 1, "unit": "mg/kg/day"}, {"measurement": "NEL", "setting": "rat [1]; [15]", "result": "< 1", "unit": "mg/kg/day"}, {"measurement": "LOAEL", "setting": "rat [1]; [16]", "result": "> 100", "unit": "mg/kg/day"}, {"measurement": "NOAEL", "setting": "rat [1]; [16]", "result": "≥ 100", "unit": "mg/kg/day"}, {"measurement": "LEL", "setting": "dog [2]", "result": 20, "unit": "mg/kg/day"}, {"measurement": "LOAEL", "setting": "dog [2]", "result": "> 20", "unit": "mg/kg/day"}, {"measurement": "NEL", "setting": "dog [2]", "result": 10, "unit": "mg/kg/day"}, {"measurement": "NOAEL", "setting": "dog [2]", "result": "≥ 20", "unit": "mg/kg/day"}, {"measurement": "LOAEL", "setting": "rabbit; [17]", "result": "> 500", "unit": "mg/kg/day"}, {"measurement": "NEL", "setting": "rabbit; [17]", "result": 50, "unit": "mg/kg/day"}, {"measurement": "NOAEL", "setting": "rabbit; [17]", "result": "≥ 500", "unit": "mg/kg/day"}, {"measurement": "LEL", "setting": "rabbit; systemic / in life observation / food consumption / food consumption", "result": 100, "unit": "mg/kg/day"}, {"measurement": "LOAEL", "setting": "rat [3]; [18]", "result": "> 500", "unit": "mg/kg/day"}, {"measurement": "NOAEL", "setting": "rat [3]; [18]", "result": "≥ 500", "unit": "mg/kg/day"}, {"measurement": "LEL", "setting": "rat [3]; [19]", "result": 250, "unit": "mg/kg/day"}, {"measurement": "NEL", "setting": "rat [3]; [19]", "result": "< 250", "unit": "mg/kg/day"}, {"measurement": "LEL", "setting": "dog [4]", "result": 1, "unit": "mg/kg/day"}, {"measurement": "LOAEL", "setting": "dog [4]", "result": "> 1", "unit": "mg/kg/day"}, {"measurement": "NEL", "setting": "dog [4]", "result": "< 1", "unit": "mg/kg/day"}, {"measurement": "NOAEL", "setting": "dog [4]", "result": "≥ 1", "unit": "mg/kg/day"}, {"measurement": "LEL", "setting": "rat [5]; systemic / in life observation / body weight / body weight + systemic / in life observation / body weight / body weight gain + systemic / …", "result": 100, "unit": "mg/kg/day"}, {"measurement": "LOAEL", "setting": "rat [5]; [20]", "result": "> 1000", "unit": "mg/kg/day"}, {"measurement": "NOAEL", "setting": "rat [5]; [20]", "result": "≥ 1000", "unit": "mg/kg/day"}, {"measurement": "LOAEL", "setting": "dog [6]; [21]", "result": "> 20", "unit": "mg/kg/day"}, {"measurement": "NOAEL", "setting": "dog [6]; [21]", "result": "≥ 20", "unit": "mg/kg/day"}, {"measurement": "LEL", "setting": "dog [6]; systemic / in life observation / clinical signs / abnormal feces", "result": 2, "unit": "mg/kg/day"}, {"measurement": "LEL", "setting": "dog [7]", "result": 5, "unit": "mg/kg/day"}, {"measurement": "LOAEL", "setting": "dog [7]", "result": "> 5", "unit": "mg/kg/day"}, {"measurement": "NEL", "setting": "dog [7]", "result": 1, "unit": "mg/kg/day"}, {"measurement": "NOAEL", "setting": "dog [7]", "result": "≥ 5", "unit": "mg/kg/day"}]}, {"smiles": "CCOCn1c(-c2ccc(Cl)cc2)c(C#N)c(Br)c1C(F)(F)F", "note": "[Chlorfenapyr]", "values": [{"measurement": "LOAEL", "setting": "dog [8]; systemic / in life observation / body weight / body weight + systemic / in life observation / body weight / body weight gain", "result": 8.7, "unit": "mg/kg/day"}, {"measurement": "LEL", "setting": "dog [8]; [22]", "result": 8.7, "unit": "mg/kg/day"}, {"measurement": "NEL", "setting": "dog [8]; [22]", "result": 4, "unit": "mg/kg/day"}, {"measurement": "NOAEL", "setting": "dog [8]; [22]", "result": 4, "unit": "mg/kg/day"}, {"measurement": "LEL", "setting": "dog [9]", "result": 6.7, "unit": "mg/kg/day"}, {"measurement": "LOAEL", "setting": "dog [9]", "result": 6.7, "unit": "mg/kg/day"}, {"measurement": "NEL", "setting": "dog [9]", "result": 3.9, "unit": "mg/kg/day"}, {"measurement": "NOAEL", "setting": "dog [9]", "result": 3.9, "unit": "mg/kg/day"}, {"measurement": "NEL", "setting": "rat [10]; [23]", "result": 30.8, "unit": "mg/kg/day"}, {"measurement": "NOAEL", "setting": "rat [10]; [23]", "result": 2.9, "unit": "mg/kg/day"}, {"measurement": "LOAEL", "setting": "rat [10]; [24]", "result": 15, "unit": "mg/kg/day"}, {"measurement": "LOAEL", "setting": "mouse [11]; systemic / in life observation / clinical signs / scabbing + systemic / pathology microscopic / brain / vacuolization", "result": 16.6, "unit": "mg/kg/day"}, {"measurement": "NOAEL", "setting": "mouse [11]; systemic / in life observation / clinical signs / scabbing + systemic / pathology microscopic / brain / vacuolization + systemic / …", "result": 2.8, "unit": "mg/kg/day"}, {"measurement": "LEL", "setting": "mouse [11]; [25]", "result": 2.8, "unit": "mg/kg/day"}, {"measurement": "NEL", "setting": "mouse [11]; [25]", "result": "< 2.8", "unit": "mg/kg/day"}, {"measurement": "LOAEL", "setting": "mouse [12]; [24]", "result": 14.8, "unit": "mg/kg/day"}, {"measurement": "NEL", "setting": "mouse [12]; [26]", "result": 7.1, "unit": "mg/kg/day"}, {"measurement": "NOAEL", "setting": "mouse [12]; [26]", "result": 7.1, "unit": "mg/kg/day"}, {"measurement": "LEL", "setting": "mouse [12]; systemic / pathology microscopic / liver / hypertrophy + systemic / hematology / lymphocyte / lymphocyte + systemic / hematology / …", "result": 14.8, "unit": "mg/kg/day"}, {"measurement": "NEL", "setting": "rat [13]; [27]", "result": 24.1, "unit": "mg/kg/day"}, {"measurement": "NOAEL", "setting": "rat [13]; [27]", "result": 24.1, "unit": "mg/kg/day"}, {"measurement": "LEL", "setting": "rat [13]; [28]", "result": 48.4, "unit": "mg/kg/day"}, {"measurement": "LOAEL", "setting": "rat [13]; [28]", "result": 48.4, "unit": "mg/kg/day"}, {"measurement": "LEL", "setting": "rat [14]; [29]", "result": 22, "unit": "mg/kg/day"}, {"measurement": "LOAEL", "setting": "rat [14]; [29]", "result": 22, "unit": "mg/kg/day"}, {"measurement": "NEL", "setting": "rat [14]; [29]", "result": 5, "unit": "mg/kg/day"}, {"measurement": "NOAEL", "setting": "rat [14]; [29]", "result": 5, "unit": "mg/kg/day"}, {"measurement": "NEL", "setting": "rat [14]; group: parental, systemic / in life observation / body weight / body weight + systemic / in life observation / body weight / body weight gain", "result": 5, "unit": "mg/kg/day"}, {"measurement": "LOAEL", "setting": "rat [14]; group: parental, systemic / in life observation / body weight / body weight gain", "result": 22, "unit": "mg/kg/day"}, {"measurement": "LEL", "setting": "rat [14]; [30]", "result": 22, "unit": "mg/kg/day"}, {"measurement": "NOAEL", "setting": "rat [14]; [30]", "result": 5, "unit": "mg/kg/day"}, {"measurement": "LEL", "setting": "rat [14]; [31]", "result": 44, "unit": "mg/kg/day"}, {"measurement": "LOAEL", "setting": "rat [14]; [31]", "result": "> 44", "unit": "mg/kg/day"}, {"measurement": "NEL", "setting": "rat [14]; [31]", "result": 22, "unit": "mg/kg/day"}, {"measurement": "NOAEL", "setting": "rat [14]; [31]", "result": "≥ 44", "unit": "mg/kg/day"}]}]}
